Measured values published in patent US10428083B2, “Heterocyclylmethyl-thienouracile as antagonists of the adenosine-A2B-receptor” (BAYER PHARMA AKTIENGESELLSCHAFT, priority 2015, dated 2019).
pIC50: −log10 of the molar value.

target: human adenosine A2b receptor (Homo sapiens (Human), UniProt P29275); assay: Cellular in vitro reporter gene test for A2b receptor activity (CHO-K1, CRE-luciferase, NECA stimulation); type: cell-based; conditions: recombinant CHO-K1 cell line, CRE-luciferase reporter, antagonism of EC50 concentration of NECA; in some cases means of several determinations, rounded to two significant figures; read-out: A2b receptor IC50
Method in brief: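 CHO-K1 cells with CRE-driven luciferase; antagonists co-incubated with NECA at its EC50, determined in a pre-experiment on each test day. Luciferase read by luminescence 3 h after NECA addition.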

Chain of human adenosine A2b receptor (P29275 whole entry): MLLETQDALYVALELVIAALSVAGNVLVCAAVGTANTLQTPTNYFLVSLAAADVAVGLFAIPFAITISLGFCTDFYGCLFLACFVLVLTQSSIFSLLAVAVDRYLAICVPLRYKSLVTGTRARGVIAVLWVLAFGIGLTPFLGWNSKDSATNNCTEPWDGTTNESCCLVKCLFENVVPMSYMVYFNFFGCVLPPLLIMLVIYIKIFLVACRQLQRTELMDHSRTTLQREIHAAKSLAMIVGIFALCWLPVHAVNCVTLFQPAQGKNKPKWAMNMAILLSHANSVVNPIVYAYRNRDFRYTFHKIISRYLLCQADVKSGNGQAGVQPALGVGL

Structure (SMILES)	pIC50
COCCn1c(=O)n(CC(C)(C)O)c(=O)c2c(C)c(CN3CCNC3=O)sc21 [Example 228, 3-(2-Hydroxy-2-methylpropyl)-1-(2-methoxyethyl)-5-methyl-6-[(2-oxoimidazolidin-1-yl)methyl]thieno[2,3-d]pyrimidine-2,4(1H,3H)-dione]	6.89
COCCn1c(=O)c2c(C)c(CN3CCNC3=O)sc2n(CCOC)c1=O [Example 231, 1,3-Bis(2-methoxyethyl)-5-methyl-6-[(2-oxoimidazolidin-1-yl)methyl]thieno[2,3-d]pyrimidine-2,4(1H,3H)-dione]	7.68
CCOCCn1c(=O)n(CCOC)c(=O)c2c(C)c(CN3CCNC3=O)sc21 [Example 232, 1-(2-Ethoxyethyl)-3-(2-methoxyethyl)-5-methyl-6-[(2-oxoimidazolidin-1-yl)methyl]thieno[2,3-d]pyrimidine-2,4(1H,3H)-dione]	7.03
COCCn1c(=O)n(CC(C)(C)OC)c(=O)c2c(C)c(CN3CCNC3=O)sc21 [Example 238, 1-(2-Methoxyethyl)-3-(2-methoxy-2-methylpropyl)-5-methyl-6-[(2-oxoimidazolidin-1-yl)methyl]thieno[2,3-d]pyrimidine-2,4(1H,3H)-dione]	7.00
COCCn1c(=O)n(C(C)C)c(=O)c2c(C)c(Cn3nc[nH]c3=O)sc21 [Example 254, 3-Isopropyl-1-(2-methoxyethyl)-5-methyl-6-[(5-oxo-4,5-dihydro-1H-1,2,4-triazol-1-yl)methyl]thieno[2,3-d]pyrimidine-2,4(1H,3H)-dione]	7.47
CCn1c(=O)c2c(C)c(CN3CCNC(=O)C3=O)sc2n(CCOC2CC2)c1=O [Example 270, 1-[2-(Cyclopropyloxy)ethyl]-6-[(2,3-dioxopiperazin-1-yl)methyl]-3-ethyl-5-methylthieno[2,3-d]pyrimidine-2,4(1H,3H)-dione]	7.42
CCOCCn1c(=O)n(CC(C)C)c(=O)c2c(C)c(CN3CCNC(=O)C3=O)sc21 [Example 271, 6-[(2,3-Dioxopiperazin-1-yl)methyl]-1-(2-ethoxyethyl)-3-isobutyl-5-methylthieno[2,3-d]pyrimidine-2,4(1H,3H)-dione]	7.33
Cc1c(CN2CCNC(=O)C2=O)sc2c1c(=O)n(CC(C)(C)C)c(=O)n2CCCF [Example 273, 3-(2,2-Dimethylpropyl)-6-[(2,3-dioxopiperazin-1-yl)methyl]-1-(3-fluoropropyl)-5-methylthieno[2,3-d]pyrimidine-2,4(1H,3H)-dione]	7.72
COCCn1c(=O)n(CC(C)(C)C)c(=O)c2c(C)c(CN3CCNC(=O)C3=O)sc21 [Example 274, 3-(2,2-Dimethylpropyl)-6-[(2,3-dioxopiperazin-1-yl)methyl]-1-(2-methoxyethyl)-5-methylthieno[2,3-d]pyrimidine-2,4(1H,3H)-dione]	7.62
Cc1c(CN2CCNC(=O)C2=O)sc2c1c(=O)n(CC(F)F)c(=O)n2C [Example 275, 3-(2,2-Difluoroethyl)-6-[(2,3-dioxopiperazin-1-yl)methyl]-1,5-dimethylthieno[2,3-d]pyrimidine-2,4(1H,3H)-dione]	7.12
COCCn1c(=O)c2c(C)c(CN3CCNC(=O)C3=O)sc2n(CCCF)c1=O [Example 277, 6-[(2,3-Dioxopiperazin-1-yl)methyl]-1-(3-fluoropropyl)-3-(2-methoxyethyl)-5-methylthieno[2,3-d]pyrimidine-2,4(1H,3H)-dione]	7.17
COC(C)(C)Cn1c(=O)c2c(C)c(CN3CCNC(=O)C3=O)sc2n(CCC(F)(F)F)c1=O [Example 279, 6-[(2,3-Dioxopiperazin-1-yl)methyl]-3-(2-methoxy-2-methylpropyl)-5-methyl-1-(3,3,3-trifluoropropyl)thieno[2,3-d]pyrimidine-2,4(1H,3H)-dione]	7.70

Continued by rising pIC50, values first:

pIC50	Structure (SMILES)
7.72	CCCN1CCN(Cc2sc3c(c2C)c(=O)n(CCc2ccccc2)c(=O)n3CCOC)C1=O [Example 240, 1-(2-Methoxyethyl)-5-methyl-6-[(2-oxo-3-propylimidazolidin-1-yl)methyl]-3-(2-phenylethyl)thieno[2,3-d]pyrimidine-2,4(1H,3H)-dione]
7.74	CCn1c(=O)c2c(C)c(Cn3cc(C)[nH]c3=O)sc2n(CCC(F)(F)F)c1=O [Example 250, 3-Ethyl-5-methyl-6-[(4-methyl-2-oxo-2,3-dihydro-1H-imidazol-1-yl)methyl]-1-(3,3,3-trifluoropropyl)thieno[2,3-d]pyrimidine-2,4(1H,3H)-dione]
7.77	COC(C)(C)Cn1c(=O)c2c(C)c(CN3CCNC3=O)sc2n(CCCF)c1=O [Example 237, 1-(3-Fluoropropyl)-3-(2-methoxy-2-methylpropyl)-5-methyl-6-[(2-oxoimidazolidin-1-yl)methyl]thieno[2,3-d]pyrimidine-2,4(1H,3H)-dione]
7.89	CCn1c(=O)c2c(C)c(CN3CCNC3=NC#N)sc2n(CCC(F)(F)F)c1=O [Example 255, [1-{[3-Ethyl-5-methyl-2,4-dioxo-1-(3,3,3-trifluoropropyl)-1,2,3,4-tetrahydrothieno[2,3-d]pyrimidin-6-yl]methyl}imidazolidin-2-ylidene]cyanamide]
7.92	COCCn1c(=O)c2c(C)c(CN3CCNC3=O)sc2n(CCCF)c1=O [Example 230, 1-(3-Fluoropropyl)-3-(2-methoxyethyl)-5-methyl-6-[(2-oxoimidazolidin-1-yl)methyl]thieno[2,3-d]pyrimidine-2,4(1H,3H)-dione]
7.92	COCCn1c(=O)n(CC(F)(F)F)c(=O)c2c(C)c(CN3CCNC3=NC#N)sc21 [Example 268, [1-{[1-(2-Methoxyethyl)-5-methyl-2,4-dioxo-3-(2,2,2-trifluoroethyl)-1,2,3,4-tetrahydrothieno[2,3-d]pyrimidin-6-yl]methyl}imidazolidin-2-ylidene]cyanamide]
7.96	CCN1CCN(Cc2sc3c(c2C)c(=O)n(CCc2ccccc2)c(=O)n3CCOC)C1=O [Example 239, 6-[(3-Ethyl-2-oxoimidazolidin-1-yl)methyl]-1-(2-methoxyethyl)-5-methyl-3-(2-phenylethyl)thieno[2,3-d]pyrimidine-2,4(1H,3H)-dione]
8.00	Cc1c(CN2CCNC(=O)C2=O)sc2c1c(=O)n(CC(C)(C)C)c(=O)n2CCC(F)(F)F [Example 272, 3-(2,2-Dimethylpropyl)-6-[(2,3-dioxopiperazin-1-yl)methyl]-5-methyl-1-(3,3,3-trifluoropropyl)thieno[2,3-d]pyrimidine-2,4(1H,3H)-dione]
8.00	Cc1c(Cn2nc[nH]c2=O)sc2c1c(=O)n(C(C)C)c(=O)n2CCC(F)(F)F [Example 253, 3-Isopropyl-5-methyl-6-[(5-oxo-4,5-dihydro-1H-1,2,4-triazol-1-yl)methyl]-1-(3,3,3-trifluoropropyl)thieno[2,3-d]pyrimidine-2,4(1H,3H)-dione]
8.00	COCCn1c(=O)c2c(C)c(CN3CCNC(=O)C3=O)sc2n(CCC(F)(F)F)c1=O [Example 276, 6-[(2,3-Dioxopiperazin-1-yl)methyl]-3-(2-methoxyethyl)-5-methyl-1-(3,3,3-trifluoropropyl)thieno[2,3-d]pyrimidine-2,4(1H,3H)-dione]
8.22	COC(C)(C)Cn1c(=O)c2c(C)c(CN3CCNC3=O)sc2n(CCC(F)(F)F)c1=O [Example 236, 3-(2-Methoxy-2-methylpropyl)-5-methyl-6-[(2-oxoimidazolidin-1-yl)methyl]-1-(3,3,3-trifluoropropyl)thieno[2,3-d]pyrimidine-2,4(1H,3H)-dione]
8.28	COCCn1c(=O)n(C(C)C)c(=O)c2c(C)c(CN3CCNC3=NC#N)sc21 [Example 263, [1-{[3-Isoprpy-1-(2-methoxyethyl)-5-methyl-2,4-dioxo-1,2,3,4-tetrahydrothieno[2,3-d]pyrimidin-6-yl]methyl}imidazolidin-2-ylidene]cyanamide]
8.33	COCCn1c(=O)n(C(C)C)c(=O)c2c(C)c(Cn3cc[nH]c3=O)sc21 [Example 246, 3-Isopropyl-1-(2-methoxyethyl)-5-methyl-6-[(2-oxo-2,3-dihydro-1H-imidazol-1-yl)methyl]thieno[2,3-d]pyrimidine-2,4(1H,3H)-dione]
8.39	CCn1c(=O)c2c(C)c(Cn3c(C)c[nH]c3=O)sc2n(CCOC)c1=O [Example 252]
8.40	COCCn1c(=O)c2c(C)c(CN3CCNC3=O)sc2n(CCC(F)(F)F)c1=O [Example 229, 3-(2-Methoxyethyl)-5-methyl-6-[(2-oxoimidazolidin-1-yl)methyl]-1-(3,3,3-trifluoropropyl)thieno[2,3-d]pyrimidine-2,4(1H,3H)-dione]
8.64	Cc1c(CN2CCNC2=NC#N)sc2c1c(=O)n(C(C)C)c(=O)n2CCC(F)(F)F [Example 262, [1-{[3-Isopropyl-5-methyl-2,4-dioxo-1-(3,3,3-trifluoropropyl)-1,2,3,4-tetrahydrothieno[2,3-d]pyrimidin-6-yl]methyl}imidazolidin-2-ylidene]cyanamide]
8.68	Cc1c(Cn2cc[nH]c2=O)sc2c1c(=O)n(C(C)C)c(=O)n2CCC(F)(F)F [Example 245, 3-Isopropyl-5-methyl-6-[(2-oxo-2,3-dihydro-1H-imidazol-1-yl)methyl]-1-(3,3,3-trifluoropropyl)thieno[2,3-d]pyrimidine-2,4(1H,3H)-dione]
8.89	CCn1c(=O)c2c(C)c(Cn3c(C)c[nH]c3=O)sc2n(CCC(F)(F)F)c1=O [Example 251, 3-Ethyl-5-methyl-6-[(5-methyl-2-oxo-2,3-dihydro-1H-imidazol-1-yl)methyl]-1-(3,3,3-trifluoropropyl)thieno[2,3-d]pyrimidine-2,4(1H,3H)-dione]
8.92	CCn1c(=O)c2c(C)c(Cn3cc[nH]c3=O)sc2n(CCC(F)(F)F)c1=O [Example 241, 3-Ethyl-5-methyl-6-[(2-oxo-2,3-dihydro-1H-imidazol-1-yl)methyl]-1-(3,3,3-trifluoropropyl)thieno[2,3-d]pyrimidine-2,4(1H,3H)-dione]
